In patent US20060141473A1, “Erk7 and erk8, novel diagnostic markers for cancer” (priority 2003, published 2006):
Residues, ends and D or L forms follow the SMILES beside them. *: point of attachment. Cbz = O=C(OCc1ccccc1)*

Columns and labels:
MAPK(ERK1/2) = details: cells expressing MAPK(ERK1/2); cited from earlier work
ERK7/8 = details: cited from earlier work
[1] = tested on: ERα-regulated transcription; experiment: ERE-luciferase transcriptional analysis in MCF-7 stable lines; assay type: cell-based, human
ERα = ERα protein levels by immunoblot in transfected BHK cells treated with proteasome inhibitor; assay type: cell-based, hamster; details: presence and absence of estradiol
Method: BHK cells were transfected in 10 mm dishes with calcium phosphate and 1 μg of wild type or mutant ERα or FLAG-IκBα or HA-SF1 or HA-AR construct, 5 μg of a construct encoding a wild type or mutant kinase or vector control. At 8 h post transfection, the cells were washed with phosphate-buffered saline (PBS) and placed in Dulbecco's modified Eagle's medium (DMEM) with 5% fetal calf serum (FCS).

[2] = molecular target: T1, bacterially expressed ERK7 (Rattus norvegicus, UniProt Q9Z2A6); experiment: ERK7 kinase assay, phosphorylation of GST-MBPtide, HRP-ELISA; assay type: biochemical; details: purified ERK7 5 nM
T1 construct: HIS-tag; made in house; host or cells: bacteria
T1 sequence (Q9Z2A6 1-547): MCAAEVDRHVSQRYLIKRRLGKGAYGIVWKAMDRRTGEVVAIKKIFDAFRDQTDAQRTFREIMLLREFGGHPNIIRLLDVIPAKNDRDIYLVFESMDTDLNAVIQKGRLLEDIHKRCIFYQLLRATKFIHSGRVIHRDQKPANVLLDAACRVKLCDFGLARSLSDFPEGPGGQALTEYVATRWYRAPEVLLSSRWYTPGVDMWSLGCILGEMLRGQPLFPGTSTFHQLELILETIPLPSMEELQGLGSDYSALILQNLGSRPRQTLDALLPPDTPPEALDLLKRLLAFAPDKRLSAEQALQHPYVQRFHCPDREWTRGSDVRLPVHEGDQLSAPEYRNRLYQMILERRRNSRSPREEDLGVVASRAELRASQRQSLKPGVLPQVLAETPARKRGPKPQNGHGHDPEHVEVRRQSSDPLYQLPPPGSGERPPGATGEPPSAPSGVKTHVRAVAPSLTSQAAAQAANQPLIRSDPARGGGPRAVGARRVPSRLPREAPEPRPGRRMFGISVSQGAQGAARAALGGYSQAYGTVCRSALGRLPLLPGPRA
Method: FIG. 1: is a graph representing the determination of the KM of ATP for bacterially expressed ERK7. Purified ERK7 (5 nM) was incubated in the presence of increasing ATP concentrations. The concentration of ATP supporting maximal velocity of the kinase reaction is 1 mM. The concentration of ATP supporting half-maximal velocity (KM) is ˜100 μM. Background is the measured signal from reactions carried out in the presence of 200 mM EDTA, which eliminates kinase activity. The background has not been subtracted from the ERK7 signal. Phosphorylation of the immobilized GST-MBPtide was detected using the HRP-ELISA as described in Example 1.
Kinase assays were developed to measure the activity of rat ERK7 and human ERK8. Purified, recombinant ERK7 and ERK8 were obtained by introducing a HIS-tag in frame with the coding sequence of the kinases, expressing the proteins in bacteria and purifying the proteins over a NiNTA resin (Qiagen, Valencia, Calif.). […]
The kinase assays were performed in a 96 well format according to the following procedure. […] All assays measured the initial velocity of reaction. […] HRP activity was measured using Western Lightning Chemiluminescence Reagent (NEL102, PerkinElmer Life Sciences) according to manufacturer's protocol. Maximum and minimum activity is the relative luminescence detected in the presence of vehicle and 200 mM EDTA, respectively. […]

C=C1[C@@H](O)[C@@H]2O[C@]3(CC[C@H](/C=C/[C@@H](C)[C@@H]4CC(C)=C[C@@]5(O[C@H](C[C@@](C)(O)C(=O)O)CC[C@H]5O)O4)O3)CC[C@H]2O[C@@H]1[C@@H](O)C[C@H](C)[C@H]1O[C@@]2(CCCCO2)CC[C@H]1C [okadaic acid]
effect on amount of TEY phosphorylated MAPK(ERK1/2) (MAPK(ERK1/2)): increases | effect on ERK7/8 TEY phosphorylation (ERK7/8): no effect

CC(C)C[C@@H](C=O)NC(=O)[C@H](CC(C)C)NC(=O)[C@H](CC(C)C)NC(=O)OCc1ccccc1 [MG132] (Cbz-Leu-Leu-Leu-aldehyde)
effect on transcriptional response ([1]; MCF-7 cells stably expressing K43A-ERK7, ERE-luciferase reporter): not affected | increase of transcriptional response to estradiol ([1]; MCF-7 control (vector) stable cells, ERE-luciferase reporter): ~3 fold | effect on ERα protein levels (ERα): increased ERα protein levels

Nc1ncnc2c1ncn2[C@@H]1O[C@H](COP(=O)(O)OP(=O)(O)OP(=O)(O)O)[C@@H](O)[C@H]1O [ATP]
concentration supporting maximal velocity of the kinase reaction [2]: 1 mM | Km ([2]; increasing ATP, read-out: KM (concentration supporting half-maximal velocity)): ~100 µM
